Assay results from PubChem BioAssay (NCI).
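Cells were grown in 96-well plates and exposed to each compound for 48 hours at five concentrations; endpoints were interpolated linearly between bracketing concentrations, or set to the highest concentration if not reached. Here, GI50 denotes the concentration required for 50% inhibition of growth. TGI denotes the concentration required for complete inhibition of growth.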

Assays:
Test in all cases: NCI anticancer screen, dose series, 48 h
[1] = test system: SW-620 colon
[2] = test system: MALME-3M melanoma
[3] = test system: SK-MEL-28 melanoma
[4] = test system: HCT-116 colon
[5] = test system: MOLT-4 leukemia
[6] = test system: NCI-H460 lung
[7] = test system: HL-60(TB) leukemia
[8] = test system: 786-0 renal
[9] = test system: SK-OV-3 ovarian
[10] = test system: BT-549 breast
[11] = test system: OVCAR-3 ovarian
[12] = test system: EKVX NSCLC
[13] = test system: ACHN renal
[14] = test system: DU-145 prostate
[15] = test system: KM12 colon
[16] = test system: HCC-2998 colon
[17] = test system: UO-31 renal
[18] = test system: NCI-H23 lung
[19] = test system: HOP-62 NSCLC
[20] = test system: RXF 393 renal
[21] = test system: TK-10 renal
[22] = test system: RPMI-8226 leukemia
[23] = test system: COLO 205 colon
[24] = test system: PC-3 prostate
[25] = test system: NCI/ADR-RES ovarian
[26] = test system: SF-268 CNS
[27] = test system: OVCAR-4 ovarian
[28] = test system: HS 578T breast
[29] = test system: SF-539 CNS
[30] = test system: NCI-H226 lung
[31] = test system: CAKI-1 renal
[32] = test system: SNB-75 CNS
[33] = test system: SR leukemia
[34] = test system: SF-295 CNS
[35] = test system: U251 CNS
[36] = test system: MDA-N
[37] = test system: OVCAR-8 ovarian
[38] = test system: M14 melanoma
[39] = test system: SK-MEL-5 melanoma
[40] = test system: HOP-92 NSCLC
[41] = test system: UACC-62 melanoma
[42] = test system: K-562 leukemia
[43] = test system: OVCAR-5 ovarian
[44] = test system: IGROV1 ovarian
[45] = test system: HT29 colon
[46] = test system: A498 renal
[47] = test system: LOX IMVI melanoma
[48] = test system: SNB-19 CNS
[49] = test system: MDA-MB-231 breast
[50] = test system: NCI-H522 lung
[51] = test system: HCT-15 colon
[52] = test system: SK-MEL-2 melanoma
[53] = test system: CCRF-CEM leukemia
[54] = test system: A549 NSCLC
[55] = test system: MCF7 breast
[56] = test system: UACC-257 melanoma
[57] = test system: SN12C renal
[58] = test system: MDA-MB-435
[59] = test system: T-47D breast

With `COc1ccc2nc3cc([N+](=O)[O-])ccc3c(NCCCN(CCO)CCO)c2c1` as the compound, how does the GI50 [1] read?
Its GI50 is 3.15 µM.

And the TGI [1]?
Its TGI is 12.3 µM.

And the GI50 [2]?
Its GI50 is 2.21 µM.

What about the TGI [2] of the same compound?
Its TGI is 5.3 µM.

What about the GI50 [3] of the same compound?
Its GI50 is 3.93 µM.

What about the TGI [3] of the same compound?
Its TGI is 13 µM.

What about the GI50 [4] of the same compound?
The GI50 was 2.36 µM.

What about the TGI [4] of the same compound?
Its TGI is 9.54 µM.

What about the GI50 [5] of the same compound?
The GI50 was 2.59 µM.

What about the TGI [5] of the same compound?
The TGI was 5.99 µM.

And the GI50 [6]?
The GI50 was 2.18 µM.

What about the TGI [6] of the same compound?
Its TGI is 8.75 µM.

And the GI50 [7]?
Its GI50 is 2.56 µM.

And the TGI [7]?
The TGI was 22.7 µM.

What about the GI50 [8] of the same compound?
Its GI50 is 4.09 µM.

What about the TGI [8] of the same compound?
The TGI was 21.1 µM.

And the GI50 [9]?
Its GI50 is 12.7 µM.

And the TGI [9]?
Its TGI is 17.2 µM.

And the GI50 [10]?
The GI50 was 5.58 µM.

And the TGI [10]?
Its TGI is 12.8 µM.

And the GI50 [11]?
Its GI50 is 5.53 µM.

What about the TGI [11] of the same compound?
Its TGI is 12.3 µM.

And the GI50 [12]?
The GI50 was 7.48 µM.

And the TGI [12]?
Its TGI is 18.4 µM.

What about the GI50 [13] of the same compound?
Its GI50 is 10 µM.

What about the TGI [13] of the same compound?
The TGI was 23 µM.

And the GI50 [14]?
Its GI50 is 12.6 µM.

And the TGI [14]?
The TGI was 43.4 µM.

And the GI50 [15]?
The GI50 was 2.64 µM.

And the TGI [15]?
The TGI was 9.97 µM.

And the GI50 [16]?
The GI50 was 2.87 µM.

And the TGI [16]?
The TGI was 7.88 µM.

And the GI50 [17]?
The GI50 was 8.56 µM.

And the TGI [17]?
The TGI was 22.6 µM.

And the GI50 [18]?
The GI50 was 6.43 µM.

And the TGI [18]?
The TGI was 14.2 µM.

And the GI50 [19]?
The GI50 was 11.4 µM.

And the TGI [19]?
Its TGI is 24.1 µM.

What about the GI50 [20] of the same compound?
Its GI50 is 2.93 µM.

And the TGI [20]?
The TGI was 11.5 µM.

What about the GI50 [21] of the same compound?
Its GI50 is 5.95 µM.

And the TGI [21]?
Its TGI is 22 µM.

What about the GI50 [22] of the same compound?
The GI50 was 2.28 µM.

And the TGI [22]?
Its TGI is 8.9 µM.

What about the GI50 [23] of the same compound?
Its GI50 is 2.64 µM.

And the TGI [23]?
The TGI was 9.12 µM.

And the TGI [24]?
The TGI was 20.1 µM.

And the GI50 [25]?
The GI50 was 15.9 µM.

What about the TGI [25] of the same compound?
The TGI was 39.9 µM.

And the GI50 [26]?
The GI50 was 4.09 µM.

What about the TGI [26] of the same compound?
The TGI was 10.8 µM.

What about the GI50 [27] of the same compound?
The GI50 was 3.81 µM.

And the TGI [27]?
The TGI was 11.4 µM.

And the GI50 [28]?
Its GI50 is 4.06 µM.

And the TGI [28]?
Its TGI is 12.5 µM.

And the GI50 [29]?
Its GI50 is 7.63 µM.

And the TGI [29]?
The TGI was 20.3 µM.

And the GI50 [30]?
Its GI50 is 8.1 µM.

What about the TGI [30] of the same compound?
Its TGI is 21.5 µM.

What about the GI50 [31] of the same compound?
The GI50 was 10.9 µM.

And the TGI [31]?
The TGI was 22.8 µM.

And the GI50 [32]?
Its GI50 is 10.9 µM.

And the TGI [32]?
Its TGI is 22.9 µM.

And the GI50 [33]?
The GI50 was 1.97 µM.

And the TGI [33]?
Its TGI is 14.3 µM.

What about the GI50 [34] of the same compound?
Its GI50 is 9 µM.

What about the TGI [34] of the same compound?
Its TGI is 22.3 µM.

And the GI50 [35]?
The GI50 was 3.57 µM.

What about the TGI [35] of the same compound?
Its TGI is 13.4 µM.

What about the GI50 [36] of the same compound?
Its GI50 is 3.47 µM.

What about the TGI [36] of the same compound?
Its TGI is 8.93 µM.

And the GI50 [37]?
The GI50 was 3.31 µM.

And the TGI [37]?
Its TGI is 11.2 µM.

And the GI50 [38]?
Its GI50 is 2.36 µM.

What about the TGI [38] of the same compound?
Its TGI is 5.18 µM.

What about the GI50 [39] of the same compound?
The GI50 was 1.8 µM.

And the TGI [39]?
The TGI was 4.69 µM.

What about the GI50 [40] of the same compound?
Its GI50 is 4.31 µM.

And the TGI [40]?
Its TGI is 11.2 µM.

And the GI50 [41]?
Its GI50 is 3.34 µM.

What about the TGI [41] of the same compound?
The TGI was 11.6 µM.

And the GI50 [42]?
Its GI50 is 1.94 µM.

What about the TGI [42] of the same compound?
The TGI was 4.77 µM.

And the GI50 [43]?
The GI50 was 12.5 µM.

And the TGI [43]?
The TGI was 25.2 µM.

What about the GI50 [44] of the same compound?
The GI50 was 2.51 µM.

What about the TGI [44] of the same compound?
The TGI was 7.13 µM.

What about the GI50 [45] of the same compound?
Its GI50 is 2.03 µM.

What about the TGI [45] of the same compound?
The TGI was 5.21 µM.

And the GI50 [46]?
Its GI50 is 18 µM.

What about the TGI [46] of the same compound?
Its TGI is 38.6 µM.

And the GI50 [47]?
The GI50 was 2.42 µM.

And the TGI [47]?
Its TGI is 6.32 µM.

And the GI50 [48]?
The GI50 was 5.68 µM.

And the TGI [48]?
The TGI was 18.6 µM.

What about the GI50 [49] of the same compound?
The GI50 was 7.78 µM.

What about the TGI [49] of the same compound?
Its TGI is 21.8 µM.

What about the GI50 [50] of the same compound?
The GI50 was 1.36 µM.

And the TGI [50]?
The TGI was 2.86 µM.

And the GI50 [51]?
Its GI50 is 12.8 µM.

What about the TGI [51] of the same compound?
Its TGI is 25.4 µM.

And the GI50 [52]?
The GI50 was 1.49 µM.

And the TGI [52]?
The TGI was 3.2 µM.

What about the GI50 [53] of the same compound?
The GI50 was 3.78 µM.

What about the TGI [53] of the same compound?
The TGI was 14.6 µM.

What about the GI50 [54] of the same compound?
The GI50 was 10.9 µM.

What about the TGI [54] of the same compound?
The TGI was 24.6 µM.

And the GI50 [55]?
The GI50 was 0.889 µM.

And the TGI [55]?
Its TGI is 4.95 µM.

What about the GI50 [56] of the same compound?
The GI50 was 2.82 µM.

What about the TGI [56] of the same compound?
Its TGI is 7.55 µM.

And the GI50 [57]?
Its GI50 is 3.92 µM.

And the TGI [57]?
The TGI was 14.7 µM.

And the GI50 [58]?
Its GI50 is 2.27 µM.

What about the TGI [58] of the same compound?
Its TGI is 5.67 µM.

And the GI50 [59]?
Its GI50 is 1.62 µM.

And the TGI [59]?
The TGI was 7.5 µM.
